{"source": "the NIST ThermoML archive (doi:10.1016/j.fluid.2016.04.012)", "conditions": "Liquid, Closed cell (Static) method", "note": "± gives the expanded uncertainty stated by the source.", "data": [{"smiles": "CO", "note": "[methanol]", "values": [{"measurement": "vapor or sublimation pressure", "setting": "337.85 K", "result": "101.3 ± 1.1", "unit": "kPa"}]}, {"smiles": "C1CCOC1", "note": "[tetrahydrofuran]", "values": [{"measurement": "vapor or sublimation pressure", "setting": "338.65 K", "result": "101.3 ± 1.1", "unit": "kPa"}]}]}
